# Legend:
# memapsin 2 [1] = target: T1, memapsin 2 (Cricetulus griseus, UniProt G3IAK4); assay: Cellular Aβ IC50 determination (Aβ40 sandwich ELISA); assay type: cell-based; settings: Chinese hamster ovary cells over-expressing human APP695 with London and Swedish mutations, 24 h
# T1 construct: endogenous in cells; host or cells: Chinese hamster ovary cells over-expressing human APP695 (London + Swedish)
# Procedure: The potency of compounds against memapsin 2 activity was determined in a cellular assay of Aβ production. […] Chinese hamster ovary cells that over-express human APP695 with the London and Swedish mutations were seeded in multi-well plates at 10% confluency. Compounds were dissolved in DMSO to concentrations near 1 mM, and diluted into culture media to a final concentration near 4 μM (final 0.4% DMSO). Compounds were diluted serially and applied to cells in multi-well plates 48 h after seeding. Incubation was continued in 5% CO2 at 37 degrees C. for 24 h. Aliquots were removed and assayed for Aβ40 content using a sandwich ELISA (BioSource International). Amount of Aβ40 over the range of concentration of compounds, relative to control incubations, were fit to a 4-parameter IC50 model.
# memapsin 2 [2] = target: memapsin 2 (Homo sapiens, UniProt P56817); assay: Inhibition of memapsin 2 beta-secretase activity toward fluorogenic substrate FS-2; assay type: biochemical; settings: pH 4, 37° C., 20 minutes pre-incubation, fluorogenic substrate FS-2, tight-binding model; read-out: M2 Ki
# memapsin 2 (Homo sapiens, UniProt P56817), sequence (P56817 46-501): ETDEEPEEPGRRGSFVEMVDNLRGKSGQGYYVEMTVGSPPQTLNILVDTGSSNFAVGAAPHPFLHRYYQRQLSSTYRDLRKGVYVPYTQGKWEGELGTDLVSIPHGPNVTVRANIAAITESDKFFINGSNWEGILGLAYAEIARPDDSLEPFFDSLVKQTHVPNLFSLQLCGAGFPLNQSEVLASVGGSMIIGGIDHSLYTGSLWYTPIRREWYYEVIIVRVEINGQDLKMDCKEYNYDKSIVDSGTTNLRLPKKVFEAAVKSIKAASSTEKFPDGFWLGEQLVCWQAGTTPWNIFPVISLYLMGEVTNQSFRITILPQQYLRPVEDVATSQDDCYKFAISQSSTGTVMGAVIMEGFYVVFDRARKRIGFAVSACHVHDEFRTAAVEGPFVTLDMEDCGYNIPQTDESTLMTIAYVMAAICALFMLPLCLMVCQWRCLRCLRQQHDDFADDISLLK
# T1 sequence (G3IAK4 22-501): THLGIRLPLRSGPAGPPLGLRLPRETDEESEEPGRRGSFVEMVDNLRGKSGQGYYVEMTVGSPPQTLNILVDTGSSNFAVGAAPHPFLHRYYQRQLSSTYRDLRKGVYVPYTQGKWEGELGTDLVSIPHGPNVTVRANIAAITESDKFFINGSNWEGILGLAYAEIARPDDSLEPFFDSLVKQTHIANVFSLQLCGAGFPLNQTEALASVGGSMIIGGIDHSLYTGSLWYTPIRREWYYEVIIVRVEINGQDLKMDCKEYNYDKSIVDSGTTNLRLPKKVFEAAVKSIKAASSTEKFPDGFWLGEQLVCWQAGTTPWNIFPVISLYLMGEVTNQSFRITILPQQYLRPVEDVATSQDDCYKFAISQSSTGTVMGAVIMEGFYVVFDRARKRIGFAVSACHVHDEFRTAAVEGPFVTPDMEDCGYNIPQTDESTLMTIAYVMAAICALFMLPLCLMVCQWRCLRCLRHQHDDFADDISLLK
IC50 (memapsin 2 [1]) [µM],Ki (memapsin 2 [2]) [µM],SMILES
6 to 100,–,"CCC(Cn1nc(C)cc1C)C(=O)NC(CNC(=O)OC(C)(C)C)C(=O)NC(CC(C)C)C(O)CC(C)C(=O)NC(C(=O)NCC(F)(F)F)C(C)C (stereo not shown) [tert-butyl 2-(2-((3,5-dimethyl-1H-pyrazol-1-yl)methyl)butanamido)-3-(5-hydroxy-2,7-dimethyl-8-(3-methyl-1-oxo-1-(2,2,2-trifluoroethylamino)butan-2-ylamino)-8-oxooctan-4-ylamino)-3-oxopropylcarbamate]"
< 6,–,"COC(=O)NCC(NC(=O)C(C)Cc1nc(C)cs1)C(=O)NC(CC(C)C)C(O)CC(C)C(=O)NC(C(=O)NCC(C)C)C(C)C (stereo not shown) [methyl 3-(5-hydroxy-8-(1-(isobutylamino)-3-methyl-1-oxobutan-2-ylamino)-2,7-dimethyl-8-oxooctan-4-ylamino)-2-(2-methyl-3-(4-methylthiazol-2-yl)propanamido)-3-oxopropylcarbamate]"
< 6,< 0.1,"CCC(Cn1nc(C)cc1C)C(=O)NC(CNC(=O)OC(C)(C)C)C(=O)NC(CC(C)C)C(O)CC(C)C(=O)NC(C(=O)NCc1nc(C)cs1)C(C)C (stereo not shown) [tert-butyl 2-(2-((3,5-dimethyl-1H-pyrazol-1-yl)methyl)butanamido)-3-(5-hydroxy-2,7-dimethyl-8-(3-methyl-1-((4-methylthiazol-2-yl)methylamino)-1-oxobutan-2-ylamino)-8-oxooctan-4-ylamino)-3-oxopropylcarbamate]"
> 100,–,"CCC(Cc1nc(C)cs1)C(=O)NC(CN(C)OC)C(=O)NC(CC(C)C)C(O)CC(C)C(=O)NC(C(=O)NCC(C)C)C(C)C (stereo not shown) [4-hydroxy-N-(1-(isobutylamino)-3-methyl-1-oxobutan-2-yl)-5-(3-(methoxy(methyl)amino)-2-(2-((4-methylthiazol-2-yl)methyl)butanamido)propanamido)-2,7-dimethyloctanamide]"
< 6,–,"Cc1csc(COC(=O)NCC(NC(=O)C(C)Cc2nc(C)cs2)C(=O)NC(CC(C)C)C(O)CC(C)C(=O)NC(C(=O)NCC(C)C)C(C)C)n1 (stereo not shown) [(4-methylthiazol-2-yl)methyl 3-(5-hydroxy-8-(1-(isobutylamino)-3-methyl-1-oxobutan-2-ylamino)-2,7-dimethyl-8-oxooctan-4-ylamino)-2-(2-methyl-3-(4-methylthiazol-2-yl)propanamido)-3-oxopropylcarbamate]"
< 6,–,"CCC(Cc1nc(C)cs1)C(=O)NC(CNC(=O)OC(C)C)C(=O)NC(CC(C)C)C(O)CC(C)C(=O)NC(C(=O)NCC(C)C)C(C)C (stereo not shown) [isopropyl 3-(5-hydroxy-8-(1-(isobutylamino)-3-methyl-1-oxobutan-2-ylamino)-2,7-dimethyl-8-oxooctan-4-ylamino)-2-(2-((4-methylthiazol-2-yl)methyl)butanamido)-3-oxopropylcarbamate]"
> 100,–,Cc1csc(COC(=O)N[C@@H](CNC(=O)OC(C)(C)C)C(=O)N[C@@H](CC(C)C)[C@@H](O)C[C@@H](C)C(=O)N[C@H](C(=O)NCC(C)C)C(C)C)n1
< 6,–,"CCC(Cn1nc(C)cc1C)C(=O)NC(CNC(=O)OC(C)(C)C)C(=O)NC(CC(C)C)C(O)CC(C)C(=O)NC(C(=O)NCC(C)C)C(C)C (stereo not shown) [tert-butyl 2-(2-((3,5-dimethyl-1H-pyrazol-1-yl)methyl)butanamido)-3-(5-hydroxy-8-(1-(isobutylamino)-3-methyl-1-oxobutan-2-ylamino)-2,7-dimethyl-8-oxooctan-4-ylamino)-3-oxopropylcarbamate]"
6 to 100,–,"Cc1csc(CC(C)C(=O)NC(CN)C(=O)NC(CC(C)C)C(O)CC(C)C(=O)NC(C(=O)NCC(C)C)C(C)C)n1 (stereo not shown) [5-(3-amino-2-(2-methyl-3-(4-methylthiazol-2-yl)propanamido)propanamido)-4-hydroxy-N-(1-(isobutylamino)-3-methyl-1-oxobutan-2-yl)-2,7-dimethyloctanamide]"

# Source: patent US20080125467A1, “Amino-Containing Compounds Which Inhibit Memapsin 2 Beta-Secretase Activity and Methods of Use Thereof” (priority 2004, published 2008)
